According to US11578368B2, “Methods, tools and systems for the assessment, prevention, management and treatment selection for type 2 diabetes” (Patia Biopharma, S.A. De C.V., priority 2015, dated 2023):

Columns and labels:
[1] = cited from earlier work
[2] = tested on: patients with and without the E508K variant of HNF1A; assay: Study of acute glipizide response in humans with the HNF1A E508K variant; type: in vivo, human; conditions: carriers vs non-carriers of HNF1A E508K, preliminary results, statistical analysis ongoing
Procedure: Acute and medium-term response to glipizide in patients with and without the E508K variant of HNF1A will be measured. The study will consist of two phases. Patients will be invited to participate in both, but the research subject will have the freedom to choose only one of the stages of the study.
Open Study of a Single Dose of Glipizide (5 mg) in Patients With and Without the E508K Variant of HNF1A
Main Objective: To compare the change in glucose between carriers and noncarriers after a single oral administration of 5 mg of glipizide. […]
Eligible patients will discontinue antidiabetic therapy and initiate a washout period of 7 days, during which they will be monitored for hyperglycemia requiring re-initiation of antidiabetic therapy. […]
Patients will be admitted to the clinical research center after fasting for 8 hours. […] The concentrations of glucose, insulin and other hormones (GLP1) and metabolites will be measured at 15, 30, 60, 90, 120, 180, and 240 minutes after administration of 5 mg of glipizide. In the event of developing symptoms of hypoglycemia, blood glucose will be measured immediately. […]

[3] = cited from earlier work; remark: listed apart in the source

Compound | life ([1]; described as short) [h] | time until it starts acting ([1]; oral) [min] | hypoglycaemic response to glipizide in carriers of the E508K HNF1A variant [2] | hypoglycaemic response to glipizide in carriers of the E508K HNF1A variant ([2]; listed as glipizide) | risk of inducing severe hypoglycemia ([3]; described as low) | rate of gastrointestinal adverse events ([3]; at the proposed dose)
Cc1cnc(C(=O)NCCc2ccc(S(=O)(=O)NC(=O)NC3CCCCC3)cc2)cn1 [Glipizide] | 2 to 8 | ≤ 30 | greater response | great hypoglycaemic response | 0.19-2.5 episodes per 1000 patient-years | 
CN(C)C(=N)N=C(N)N [Metformin] |  |  |  |  |  | low rate
